Tests used:
[1] = test system: brain metastases from breast cancer; conditions: cited from earlier work
U373MG = test: Cytotoxicity of letrozole (MTT assay); format: cell-based; conditions: Homo sapiens, U373 MG
T98G = test: Cytotoxicity of letrozole (MTT assay); format: cell-based; conditions: Homo sapiens
[2] = biological target: T1, aromatase activity in rat glioma cell line C6 (Rattus norvegicus, UniProt P22443); test: Aromatase activity (estradiol EIA assay); format: cell-based; conditions: testosterone 0.1 μM, 2 days incubation
T1 construct: endogenous in cells; host or cells: C6 rat glioma cell line
T1 sequence (P22443 1-508): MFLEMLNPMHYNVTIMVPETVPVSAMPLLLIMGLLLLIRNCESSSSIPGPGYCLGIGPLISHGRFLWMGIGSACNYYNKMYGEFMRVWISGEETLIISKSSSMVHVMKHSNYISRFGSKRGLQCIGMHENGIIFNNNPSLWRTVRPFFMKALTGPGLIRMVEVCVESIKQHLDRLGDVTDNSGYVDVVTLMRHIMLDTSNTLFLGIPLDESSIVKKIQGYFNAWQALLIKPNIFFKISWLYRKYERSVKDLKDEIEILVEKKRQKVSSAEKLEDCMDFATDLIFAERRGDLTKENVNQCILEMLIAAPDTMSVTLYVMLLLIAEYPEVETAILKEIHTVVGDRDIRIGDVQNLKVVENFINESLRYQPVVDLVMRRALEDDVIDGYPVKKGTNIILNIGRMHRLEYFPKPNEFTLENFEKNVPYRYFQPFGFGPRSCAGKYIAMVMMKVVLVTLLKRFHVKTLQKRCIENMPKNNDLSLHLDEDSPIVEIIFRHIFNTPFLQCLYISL

in vivo = conditions: female, Sprague-Dawley, rat, iv
Method: (§1) Experiments were carried out in female Sprague-Dawley rats weighing 200-250 g. […] Blood samples from jugular vein cannulation and dialysate samples from microdialysis probe implanted stereotactically into the striatum region of the brain were obtained every 30 minutes over 8 hours and analyzed by HPLC (fluorescence detection, Excitation λ, 230 nm; Emission λ, 295 nm). Microdialysate samples were corrected for in vivo relative recovery (9.5%), measured under similar experimental conditions.
(§2) In order to obtain the correct ECF concentrations from those obtained by bioanalysis of dialysate samples, the correction factor known as “% recovery” is employed. The % recovery for a compound can be obtained by in vivo or in vitro recovery analysis. […] In vitro relative recovery was calculated as follows: % recoveryin vitro=[C(dialysate)/C(reservoir)]×100
(§3) At the end of microdialysis, brain tissues were collected after transcardial perfusion for histological evaluation to confirm formation of tumor in the right striatum and immunohistochemistry to differentiate the expression of aromatase in tumoral and normal brain regions. The pharmacokinetic parameters (including time required to achieve maximum drug levels (Tmax), area under the concentrations-time curve (AUC) over a defined time interval, and peak or maximum concentrations (Cmax)) of both plasma and brain ECF were estimated by non-compartmental analysis using WinNonlin 6.2 (Pharsight Inc.).
(§4) The brain ECF concentrations were time-averaged over the collection interval and corrected for in vivo recovery. […] Results are presented as mean±SD. (N=9 for 4 and 8 mg/kg, N=6 for 6 and 12 mg/kg). […] Simultaneous plasma and ECF pharmacokinetic determination facilitated estimation of the relative brain distribution coefficient, calculated as (AUCbrain ecf/AUCplasma, ub).

[3] = Plasma protein binding with non-specific binding correction; format: in vitro ADME; conditions: NSB correction, concentration range 0.1-10 μM
Excerpt: Results are presented as mean±SD.

C6 glioma [4] = test: In vivo anti-tumor efficacy of oral dosed letrozole; design: species or system rat; conditions: 4 mg/kg/day oral gavage stopped after 15 days; scan on Day 45
Excerpt: Rats received tumor implantation as described in Example 6. […] Animals were scanned 5, 10, and 15 days after treatment period to observe change in tumor volume. After 15 days, treatment was stopped. Animals were scanned again on Day 45 (30 days post cessation of treatment).

[5] = Tumoral versus normal brain ECF pharmacokinetics in C6 glioma-bearing rats; format: in vivo, female Sprague-Dawley rats
Method: Histology of rat brains was performed as outlined in Apparaju et al., Pharmacokinetics of gemcitabine in tumor and non-tumor extracellular fluid of brain: an in vivo assessment in rats employing intracerebral microdialysis, Cancer Chemother. Pharmacol. 61: 223-29 (2008).

rat glioma cell line C6 = test: Cytotoxicity of letrozole (MTT assay); format: cell-based
aromatase = test: Aromatase expression in rat glioma tissue (IHC); format: in vivo; conditions: treatment group versus control group (high expression)
Method: Expression of aromatase in tumors from rats of both control and treatment groups was evaluated using immunohistochemical (IHC analysis). Rat ovary (FIG. 12(A)) was used as a positive control for aromatase expression.

[6] = Normal brain ECF (microdialysis) versus plasma pharmacokinetics, IV bolus; conditions: for Cmax, Brain: brain ECF; for Cmax, Brain / AUC0-8 hr, Plasma ub (Unbound) / Cmax, Plasma ub (Unbound): mean±SD;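 for all read-outs here: parameters by non-compartmental analysis, mean±SD, brain ECF sampled by microdialysis in freely moving rats and corrected for in vivo recovery, Kp as brain ECF AUC over unbound plasma AUC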
Method: as §1, §2, §3, §4

MCF-7 = test: Cytotoxicity of letrozole (MTT assay); format: cell-based; conditions: Homo sapiens, MCF7
C6 glioma [7] = conditions: 4 mg/kg/day i.v.
Excerpt: 10 days after tumor implantation, anesthetized rats were scanned on μPET scanner (Siemens Inveon) to obtain active tumor volume at Day 0.
Animals were scanned again 8-10 days post treatment to assess change in tumor volume.

[8] = Brain pharmacokinetics after oral administration; format: in vivo; conditions: rat, 4 mg/kg oral gavage, brain ECF
Excerpt: A slight delay in Tmax was observed, consistent with the delay of appearance of the drug in systemic circulation.

MDA-MB-231 = test: Cytotoxicity of letrozole (MTT assay); format: cell-based; conditions: Homo sapiens
[9] = Tumoral versus normal brain ECF pharmacokinetics in C6 glioma-bearing rats; format: in vivo; conditions: female, Sprague-Dawley, rat, mean±SD; for AUC(0-t): 8 mg/kg IV bolus
[10] = female, Sprague-Dawley, rat, tumor-free brain ECF (left striatum, control), 8 mg/kg IV bolus, tumor-free brain ECF, mean±SD

Q: For N#Cc1ccc(C(c2ccc(C#N)cc2)n2cncn2)cc1 [letrozole, 4,4′-((1H-1,2,4-triazol-1-yl)methylene)dibenzonitrile], which “clinical response of brain metastases, case report (Madhup et al.)” value ([1]; person, 5-mg tablets once daily, repeat CECT in 2005) is on record?
A: The value was “significant reduction in the brain metastases”.

Q: And the “clinical response of brain metastases, case report (Goyal et al.)” value ([1]; postmenopausal person, 2.5 mg daily, 20 months later)?
A: The value was “complete recovery of neurological functions”.

Q: What about the IC50 (U373MG) of the same compound?
A: The IC50 was 4390 nM.

Q: And the IC50 (T98G)?
A: Its IC50 is 2810 nM.

Q: What about the IC50 [2] of the same compound?
A: The IC50 was 100 nM.

Q: And the Kp (in vivo; brain ECF (striatum microdialysate) versus unbound plasma, 4 mg/kg)?
A: The Kp was 0.51.

Q: What about the Kp (in vivo; brain ECF / unbound plasma, 4 mg/kg) of the same compound?
A: The Kp was 0.32.

Q: What about the Kp (in vivo; brain ECF / unbound plasma, 6 mg/kg) of the same compound?
A: The Kp was 0.98.

Q: What about the Kp (in vivo; brain ECF / unbound plasma, 8 mg/kg) of the same compound?
A: Its Kp is 0.77.

Q: And the Kp (in vivo; brain ECF / unbound plasma, 12 mg/kg)?
A: Its Kp is 0.8.

Q: What about the AUC(0-t) (in vivo; brain ECF, 4 mg/kg) of the same compound?
A: Its AUC(0-t) is 583 ± 189 ng·h/mL.

Q: And the Cmax (in vivo; brain ECF, 4 mg/kg)?
A: Its Cmax is 132 ± 79 ng/mL.

Q: What about the Tmax (in vivo; brain ECF, 4 mg/kg) of the same compound?
A: The Tmax was 1.4 ± 0.6 h.

Q: What about the AUC(0-t) (in vivo; brain ECF, 6 mg/kg) of the same compound?
A: Its AUC(0-t) is 2010 ± 137 ng·h/mL.

Q: And the AUC(0-t) (in vivo; brain ECF, 8 mg/kg)?
A: Its AUC(0-t) is 2640 ± 286 ng·h/mL.

Q: And the Tmax (in vivo; brain ECF, 8 mg/kg)?
A: Its Tmax is 1.33 ± 0.5 h.

Q: And the AUC(0-t) (in vivo; brain ECF, 12 mg/kg)?
A: The AUC(0-t) was 2550 ± 173 ng·h/mL.

Q: And the Tmax (in vivo; brain ECF, 12 mg/kg)?
A: Its Tmax is 1.3 to 1.5 h.

Q: What about the AUC(0-t) (in vivo; plasma (total), 4 mg/kg) of the same compound?
A: The AUC(0-t) was 4780 ± 932 ng·h/mL.

Q: And the Cmax (in vivo; plasma (total), 4 mg/kg)?
A: Its Cmax is 682 ± 24 ng/mL.

Q: And the AUC(0-t) (in vivo; plasma (total), 6 mg/kg)?
A: The AUC(0-t) was 5980 ± 146 ng·h/mL.

Q: And the Cmax (in vivo; plasma (total), 6 mg/kg)?
A: The Cmax was 916 ± 71 ng/mL.

Q: And the AUC(0-t) (in vivo; plasma (total), 8 mg/kg)?
A: The AUC(0-t) was 8830 ± 1080 ng·h/mL.

Q: And the Cmax (in vivo; plasma (total), 8 mg/kg)?
A: Its Cmax is 1280 ± 182 ng/mL.

Q: And the AUC(0-t) (in vivo; plasma (total), 12 mg/kg)?
A: The AUC(0-t) was 8060 ± 1420 ng·h/mL.

Q: What about the Cmax (in vivo; plasma (total), 12 mg/kg) of the same compound?
A: Its Cmax is 2070 ± 258 ng/mL.

Q: And the fraction unbound [3]?
A: The fraction unbound was 0.38.

Q: And the “tumor course after cessation of treatment” value (C6 glioma [4])?
A: The value was “tumors recurred once treatment was stopped”.

Q: What about the “Cmax, Tumor” value ([5]; 4 mg/kg IV bolus, tumoral brain ECF, mean±SD) of the same compound?
A: Its value is 354 ± 34 ng/mL.

Q: And the “Cmax, Tumor” value ([5]; 8 mg/kg IV bolus, tumoral brain ECF, mean±SD)?
A: The value was 1022 ± 204 ng/mL.

Q: And the Tmax ([5]; female, Sprague-Dawley, rat, tumor-free brain ECF (left striatum, control), 4 mg/kg IV bolus, tumor-free brain ECF, mean±SD)?
A: Its Tmax is 1.75 ± 0.5 h.

Q: What about the AUC(0-t) ([5]; female, Sprague-Dawley, rat, tumor-free brain ECF (left striatum, control), 4 mg/kg IV bolus, tumor-free brain ECF, mean±SD, read-out: AUC0-8 hr, Control) of the same compound?
A: Its AUC(0-t) is 803 ± 216 ng·h/mL.

Q: And the Cmax [5, 10]?
A: The Cmax was 475 ± 87 ng/mL.

Q: What about the Tmax [5, 10] of the same compound?
A: The Tmax was 1.33 ± 0.3 h.

Q: And the AUC(0-t) ([5]; female, Sprague-Dawley, rat, tumoral brain ECF (right striatum), 4 mg/kg IV bolus, tumoral brain ECF, mean±SD, read-out: AUC0-8 hr, Tumor)?
A: The AUC(0-t) was 1160 ± 167 ng·h/mL.

Q: What about the “penetration of BBB and BTB” value ([5]; rats, microdialysis) of the same compound?
A: Its value is “effectively crosses the BBB and BTB”.

Q: And the IC50 (rat glioma cell line C6)?
A: Its IC50 is 110 nM.

Q: What about the “aromatase expression in tumor sections (IHC)” value (aromatase) of the same compound?
A: Its value is “relatively low aromatase expression”.

Q: And the “Cmax, Brain” value ([6]; 4 mg/kg IV bolus)?
A: The value was 132 ± 79 ng/mL.

Q: And the “AUC0-8 hr, Plasma ub (Unbound)” value ([6]; 4 mg/kg IV bolus)?
A: Its value is 1817 ± 354 ng·h/mL.

Q: And the “Cmax, Plasma ub (Unbound)” value ([6]; 4 mg/kg IV bolus)?
A: The value was 259 ± 9 ng/mL.

Q: And the “AUC0-8 hr, Plasma ub (Unbound)” value ([6]; 6 mg/kg IV bolus)?
A: Its value is 2272 ± 56 ng·h/mL.

Q: And the “Cmax, Plasma ub (Unbound)” value ([6]; 6 mg/kg IV bolus)?
A: The value was 348 ± 27 ng/mL.

Q: And the “Cmax, Brain” value ([6]; 8 mg/kg IV bolus)?
A: Its value is 376 ± 61 ng/mL.

Q: And the “AUC0-8 hr, Plasma ub (Unbound)” value ([6]; 8 mg/kg IV bolus)?
A: Its value is 3355 ± 412 ng·h/mL.

Q: What about the “Cmax, Plasma ub (Unbound)” value ([6]; 8 mg/kg IV bolus) of the same compound?
A: Its value is 485 ± 69 ng/mL.

Q: What about the “Cmax, Brain” value ([6]; 12 mg/kg IV bolus) of the same compound?
A: Its value is 631 ± 22 ng/mL.

Q: And the “AUC0-8 hr, Plasma ub (Unbound)” value ([6]; 12 mg/kg IV bolus)?
A: Its value is 3062 ± 539 ng·h/mL.

Q: And the “Cmax, Plasma ub (Unbound)” value ([6]; 12 mg/kg IV bolus)?
A: The value was 787 ± 98 ng/mL.

Q: What about the “dose linearity of brain and plasma pharmacokinetics” value ([6]; IV bolus 4, 6, 8, 12 mg/kg, linear regression of Cmax and AUC0-8hr) of the same compound?
A: Its value is “linear up to 8 mg/kg and potentially non-linear thereafter”.

Q: And the IC50 (MCF-7)?
A: The IC50 was less than 100 nM.

Q: And the “clinical condition of treated rats” value (C6 glioma [7]; throughout the treatment period)?
A: The value was “no clinical symptoms”.

Q: What about the “tumor volume, treatment rat 8, day 8” value (C6 glioma [7]; Day 0 volume 90.9 mm^3) of the same compound?
A: Its value is 5.8 mm^3.

Q: And the “tumor volume, treatment rat 4, Day 5” value (C6 glioma [7]; Day 0 volume 100.5 mm^3)?
A: Its value is 70.5 mm^3.

Q: What about the “tumor volume, treatment rat 4, Day 10” value (C6 glioma [7]; Day 0 volume 100.5 mm^3) of the same compound?
A: The value was 18.7 mm^3.

Q: What about the Cmax [8] of the same compound?
A: Its Cmax is 176 ± 23 ng/mL.

Q: What about the Tmax [8] of the same compound?
A: Its Tmax is 5.75 ± 1.8 h.

Q: And the AUC(0-t) ([8]; read-out: AUC0-8 hr)?
A: Its AUC(0-t) is 976 ± 162 ng·h/mL.

Q: What about the IC50 (MDA-MB-231) of the same compound?
A: The IC50 was greater than 100000 nM.

Q: What about the Cmax ([9]; tumor-free brain ECF (left striatum, control), 4 mg/kg IV bolus, tumor-free brain ECF) of the same compound?
A: The Cmax was 183 ± 13 ng/mL.

Q: And the AUC(0-t) ([9]; tumor-free brain ECF (left striatum, control), tumor-free brain ECF, read-out: AUC0-8 hr, Control)?
A: The AUC(0-t) was 2280 ± 428 ng·h/mL.

Q: What about the AUC(0-t) ([9]; tumoral brain ECF (right striatum), tumoral brain ECF, read-out: AUC0-8 hr, Tumor) of the same compound?
A: Its AUC(0-t) is 4700 ± 555 ng·h/mL.

From patent US9682066B2 (University of Cincinnati, priority 2012, dated 2017)
